Reference: patent US12075776B2, “Synthetic lures” (VICTORIA LINK LIMITED, priority 2016, dated 2024)

What was measured:
Type in all cases: in vivo
wild, free-ranging rats [1] = experiment: Model selection / model averaging of blend-trial response variables (Visitation, Contact, Marking, Intensity); details: response variable Intensity (footprint squares); Phase removed as random effect
wild, free-ranging rats [2] = experiment: as above; details: for relative importance of variable (model averaging), Contact: response variable Contact (chew or bite marks); for relative importance of variable (model averaging), Marking: response variable Marking (urination and/or faecal marking); for relative importance of variable (model averaging), Visitation: response variable Visitation (tracking), presence/absence of compound in lure as predictor
Source text: (§1) Trials were designed to compare the performance of each lure relative to the best performing lure after each successive trial phase. The elimination of poorer performing lures allowed for higher levels of internal replication and the inclusion of additional multi-component blend lures to Phase Two. Lures were scored using the presence/absence of rat tracks on inked tracking cards to provide a proportion of tracking cards receiving species-specific visitations and hereafter termed the ‘tracking rate’. The tracking rate was used to direct the elimination process. Lures that were statistically less attractive than the best performing lure after Phase One trials were eliminated from subsequent trials. Three behavioural response variables were scored that were designed to quantify the strength of the visit to the respective lure: (1) the presence of urination and/or faecal marking in or on the tracking tunnel and hereafter termed ‘Marking’; (2) the presence of chew or bite marks on the microtube and/or tracking tunnel and hereafter termed ‘Contact’ and; (3) the amount of footprints on each tracking card that received a visitation. This was measured using a 10 cm×47 cm Perspex sheet with a grid made up of 1 cm^2 squares. The number of squares with species-specific tracks was calculated to provide a score, hereafter termed ‘Intensity’. Intensity was designed to identify lures that generated intensive or multiple visits by an individual or that elicited visits from multiple individuals.
A multi-model information-theoretic approach was used at the end of Phase Two to identify the models of best fit for each of the four response variables (Tracking, Marking, Contact and Intensity) and to investigate possible synergistic effects between compounds used in multi-component blends. Data for each lure comprising one or any combination of A6, B6, C6, F7 and/or 17 were collated. Model averaging was used to identify each compounds relative importance to each response variable.
Binomial tests were used to compare the performance of each lure to the best performing lure at the end of each in-field trial phase and drive the process. Tracking, Marking and Contact models were run as generalised linear mixed-effects models (GLMM) with a binomial distribution and logit link and a linear mixed-effects model (LMM) for Intensity. The presence/absence of compounds in each lure were used as predictor variables.
A ‘Global’ model was firstly generated containing all fixed-effect parameters, with ‘Site’ and/or ‘Transect’ and/or ‘Trial Phase” included as random effects. This allowed for the examination of both spatial (Site and Transect) and temporal (Trial Phase) impacts on the data. ‘Transect’ nested within ‘Site’ and ‘Trial Phase’ provided an improved model fit compared to any other random effect model, therefore all models were run with the inclusion of ‘Transect’ nested within ‘Site’ and ‘Trial Phase” as random effects. Akaike's information criterion corrected for small sample size (AICc) was used to compare models. Corresponding Akaike differences (Δi), the number of parameters (K), Akaike weights (Wi) and log-likelihoods (LL) were also calculated. As the model set was not balanced i.e., there were not equal numbers of models for each variable a cut-off of 10AICC was used (Bolker et al. 2009) to create the model averaging candidate model-sets from the relative importance of variables were derived. Correlations between the response variables used in linear regression models were examined using Dice's similarity coefficient (QS) due to the binary nature of three of the four variables (Choi et al. 2010).
Statistical significance was assumed wherever P≤0.05. All statistical analysis was run in R (R Core Team 2016), with package Ime4 (Bates et al. 2015) used for mixed-effects models and MuMIn (Barton 2016) used for AICc scores, weights, deltas, log-likelihoods and model averaging (using the dredge function).

wild, free-ranging rats [3] = experiment: Field trials of single-compound synthetic lures in tracking tunnels (tracking rate); details: for attractiveness relative to peanut butter standard and control (aggregated tracking rate): tracking rate aggregated for all seven concentrations 10,000 to 0.01 ppm in fractionated coconut oil, one night, FIG. 2
Protocol: Synthetic lures comprising a single compound mixed in a carrier medium (fractionated coconut oil) were presented to wild, free-ranging rats at 7 concentrations, decreasing in orders of magnitude from 10,000 ppm to 0.01 ppm. The compounds and concentrations used are set out in Table 2. Lures were presented in 1.7 mL Eppendorf microtubes secured to the inside wall of tracking tunnels using a cable tie. Inked cards were placed in each tunnel to quantify the visitation and identity of species visiting lures. Lures were randomly assigned along transects, with a minimum 25-m spacing between lures and with transects separated by 200 m. A control (fractionated coconut oil only) and standard (peanut butter) were assigned to each transect, with each transect comprising of lures presented at the same concentration. The order of transects was randomised for each trial. All lures were left in situ for one rain-free night. Lures were scored using the presence of rat tracks on inked cards to provide a proportion of inked cards receiving a visit for each lure, hereafter termed the “tracking rate”. Binomial tests were used to compare the tracking rate of each individual lure against peanut butter at the end of the trial period. Binomial tests were run in R (R Core Team 2013). Ten trials were undertaken at independent sites across the Wainuiomata and Orongorongo catchment region and within the Akatarawa and Pakuratahi Forest Parks, Wellington region (41° 15S, 175° 00E), New Zealand between 15 Jul. 2015 and 11 Nov. 2015.

wild, free-ranging rats [4] = experiment: Blend trials (Phase One and Phase Two) of single and multi-component lures in tracking tunnels; details: Phase One; for performance versus top performing lure CF (binomial test): P<0.03
Source text: Lure preparation and presentation methods followed those outlined above.
For Phase One, A6, B6, C6, F7 and 17 identified as in Table 2 were presented. For example, A6 and B6 were blended together in equal parts to make a dyad lure coded AB. Each trial consisted of a single spatially stratified transect. Each strata contained one of each lure, a control (FCO) and the standard (peanut butter). The number of transect strata varied between trials according to site conditions i.e., track length and accessibility. Lures were spaced at 50 m, with the order of lures randomised within transect strata and between each trial. All lures were left in situ for two rain-free night. Ten trials were undertaken at independent sites across the Greater Wellington region and Richmond Range, Nelson, New Zealand between 11 Nov. 2015 and 25 Feb. 2016.
For Phase Two, the best performing single and dyad lures identified after Phase One were presented. In addition, all possible triad, tetrad and pentad blend combinations of A, B, C, F and I were created and trialled. […]
as §1, with “The elimination of poorer performing lures allowed for higher levels of internal replication and the inclusion of additional multi-component blend lures to Phase Two.” left out, “The tracking rate was used to direct the elimination process. Lures that were statistically less attractive than the best performing lure after Phase One trials were eliminated from subsequent trials.” left out, “Intensity was designed to identify lures that generated intensive or multiple visits by an individual or that elicited visits from multiple individuals.” left out

| SMILES | relative importance of variable (model averaging), Intensity (wild, free-ranging rats [1]) | relative importance of variable (model averaging), Contact (wild, free-ranging rats [2]) | relative importance of variable (model averaging), Marking (wild, free-ranging rats [2]) | relative importance of variable (model averaging), Visitation (wild, free-ranging rats [2]) | attractiveness relative to peanut butter standard and control (aggregated tracking rate) (wild, free-ranging rats [3]) | performance versus top performing lure CF (binomial test) (wild, free-ranging rats [4]) | tracking rate (wild, free-ranging rats [4]; 10 sites, n=30 per lure, two nights, summer months) | trend of attraction with concentration (wild, free-ranging rats [3]; seven concentrations 10,000 to 0.01 ppm) |
| --- | --- | --- | --- | --- | --- | --- | --- | --- |
| CC(C)CCO [A, isoamyl alcohol] | 0.85 | 0.68 | 0.95 | 0.69 | more attractive than the peanut butter standard | – | – | – |
| CCCCCCO [B, 1-hexanol] | 0.89 | 0.50 | 0.95 | 0.90 | more attractive than the peanut butter standard | statistically weaker | – | – |
| CC(=O)C(C)O (stereo not drawn) [C, acetoin] | 0.94 | 0.50 | 0.96 | 0.58 | more attractive than the peanut butter standard | – | 0.20 | – |
| CC(C)CC(=O)O [D, Isopentanoic acid] | – | – | – | – | less attractive than the peanut butter standard and the control | – | – | – |
| Cc1nccnc1C [E, 2,3-dimethylpyrazine] | – | – | – | – | less attractive than the peanut butter standard and the control | – | – | – |
| CC(=O)OCC(C)C [F, isobutyl acetate] | 0.86 | 0.78 | 0.987 | 0.70 | more attractive than the peanut butter standard | statistically weaker | – | – |
| CC(=O)OCCC(C)C [G, Isopentyl acetate] | – | – | – | – | less attractive than the peanut butter standard and the control | – | – | no trend |
| Cc1nc(C)c(C)nc1C [H, Tetramethylpyrazine] | – | – | – | – | less attractive than the peanut butter standard but more attractive than the control | – | – | – |
| CCC(C)COC(C)=O (stereo not drawn) [I, 2-methylbutyl acetate] | 0.88 | 0.48 | 0.95 | 0.84 | more attractive than the peanut butter standard | – | – | – |
